# Test results: the supplement of paper PMC7661543
# ± gives the standard deviation of the averaged measurements.
# What was measured:
# Assay in all cases: relative cell number vs DMSO control (72 h) (% of DMSO); higher = less growth inhibition (more cells)
# Conditions in all cases: sgRNA knockout: sgNT
# [1] = system: SKBR3
# Experimental: (§1)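 QMAP-Seq: a pool of 5 breast cancer cell lines (ZR-75-1, SKBR3, HCC-38, MDA-MB-231, BT-20), each carrying 12 doxycycline-inducible Cas9 sgRNA perturbations (11 knockouts plus non-targeting sgNT), was treated with compounds for 72 h at four 10-fold doses (10 nM-10 uM or 1 nM-1 uM range). Barcodes were amplified and sequenced, and cell number was interpolated from 293T spike-in standard curves. The result is expressed as % of the median of DMSO wells. Two biological replicates.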
# [2] = system: HCC-38
# Experimental: as §1
# [3] = system: BT-20
# Experimental: as §1
# [4] = system: MDA-MB-231
# Experimental: as §1
# [5] = system: ZR-75-1
# Experimental: as §1
Structure (SMILES),relative cell number ([1]; 10 nM),relative cell number ([1]; 100 nM),relative cell number ([1]; 1000 nM),relative cell number ([1]; 10000 nM),relative cell number ([2]; 10 nM),relative cell number ([2]; 100 nM),relative cell number ([2]; 1000 nM),relative cell number ([2]; 10000 nM),relative cell number ([3]; 10 nM),relative cell number ([3]; 100 nM),relative cell number ([3]; 1000 nM),relative cell number ([3]; 10000 nM),relative cell number ([4]; 10 nM),relative cell number ([4]; 100 nM),relative cell number ([4]; 1000 nM),relative cell number ([4]; 10000 nM),relative cell number ([5]; 10 nM),relative cell number ([5]; 100 nM),relative cell number ([5]; 1000 nM),relative cell number ([5]; 10000 nM),relative cell number ([1]; 1 nM),relative cell number ([2]; 1 nM),relative cell number ([3]; 1 nM),relative cell number ([4]; 1 nM),relative cell number ([5]; 1 nM)
CN(Cc1cnc2nc(N)nc(N)c2n1)c1ccc(C(=O)N[C@@H](CCC(=O)O)C(=O)O)cc1 [Methotrexate],116 ± 42,41 ± 1.5,22.1 ± 12,25.5 ± 6.4,105 ± 3.4,56 ± 1.1,41.2 ± 0.74,35.2 ± 0.52,98.43 ± 0.61,80.6 ± 3.4,51.2 ± 16,37.8 ± 12,97.5 ± 4.3,101 ± 17,91.2 ± 9.4,33.9 ± 8.7,89.6 ± 11,38.6 ± 12,40.6 ± 11,36.9 ± 8,–,–,–,–,–
O=C1c2c(O)ccc(O)c2C(=O)c2c(NCCNCCO)ccc(NCCNCCO)c21 [Mitoxantrone],37.3 ± 21,22.3 ± 5.1,4.5 ± 0.26,4.94 ± 3.2,33.9 ± 2.3,30.46 ± 0.2,7.76 ± 0.68,7.21 ± 2.4,55 ± 13,39.2 ± 9.2,19.5 ± 5,5.45 ± 2,20.8 ± 7.3,17.3 ± 0.44,4.896 ± 0.008,6.65 ± 4.1,37.2 ± 4,22.3 ± 12,13.4 ± 1.2,7.6 ± 0.68,–,–,–,–,–
CCNC(=O)c1noc(-c2cc(C(C)C)c(O)cc2O)c1-c1ccc(CN2CCOCC2)cc1 [NVPAUY922],78.6 ± 19,30 ± 8.8,18.5 ± 5.7,–,67.6 ± 2.1,31.7 ± 5.1,30 ± 6,–,81.1 ± 1.5,48 ± 3.7,37.9 ± 5.3,–,71.4 ± 5.7,16 ± 4.2,9.36 ± 1.3,–,89.8 ± 44,27.1 ± 1.1,25.7 ± 6.9,–,116 ± 31,112 ± 16,96.7 ± 24,111 ± 40,107 ± 6.7
CC1(C)CCC(c2ccc(Cl)cc2)=C(CN2CCN(c3ccc(C(=O)NS(=O)(=O)c4ccc(N[C@H](CCN5CCOCC5)CSc5ccccc5)c(S(=O)(=O)C(F)(F)F)c4)cc3)CC2)C1 [Navitoclax],74.6 ± 24,117 ± 33,50 ± 18,75.1 ± 14,96.9 ± 14,102 ± 12,76.6 ± 12,47.9 ± 1.3,85.4 ± 11,90.6 ± 3.6,94.8 ± 3.5,78 ± 12,93.9 ± 27,108 ± 6.7,93.9 ± 13,52.5 ± 7.4,86.5 ± 10,95.5 ± 39,105 ± 11,81.5 ± 24,–,–,–,–,–
CN1C(=O)C(Cc2c[nH]c3ccccc23)NC1=S (stereo not given) [Necrostatin1],89.8 ± 11,92.2 ± 8.2,60.4 ± 1.4,68.6 ± 3.7,110 ± 12,92.5 ± 3.2,105 ± 2.8,91.2 ± 2.3,110 ± 16,63.8 ± 8.2,82.9 ± 0.53,114 ± 14,97.3 ± 20,79.2 ± 7.1,97.7 ± 25,64.1 ± 3,76.9 ± 14,71.3 ± 29,78.3 ± 31,84.6 ± 35,–,–,–,–,–
COc1nc(N)nc2c1ncn2[C@@H]1O[C@H](CO)[C@@H](O)[C@@H]1O [Nelarabine],100 ± 31,85.8 ± 2.9,101 ± 6.9,91.7 ± 4.2,113 ± 3.4,96.7 ± 16,99 ± 21,109 ± 4.1,90.5 ± 4.3,85.5 ± 1.7,94.9 ± 26,98 ± 15,82 ± 19,95.5 ± 4.6,104 ± 23,72 ± 26,85.5 ± 33,74.6 ± 23,81.7 ± 5.5,109 ± 7.7,–,–,–,–,–
